# Entries after “also recorded” stand apart in the source; their conditions may differ.
# Key:
# [1] = test system: nitrotyrosine; assay: Western immunoblotting, nitrotyrosine; format: in vivo, rat; details: aged rats; oral 8-AG 5 mg/kg/day, 6 weeks
# Experimental: Western immunoblotting: One half of each bladder preparation was homogenized using Lysing Matrix D in a FastPrep 24 instrument (MP Biomedicals, Solon, Ohio) in HBSS (5 mM KCl, 0.3 mM KH2PO4, 138 mM NaCl, 4 mM NaHO3, 0.3 mM Na2HCO3, 0.3 mM Na2HPO4, 5.6 mM glucose and 10 mM Hepes, pH 7.4) containing complete protease inhibitor cocktail (1 tablet/10 ml, ROCHE®, Indianapolis, Ind.)) and phosphatase inhibitor cocktail (SIGMA®, 1:100). After centrifugation (13000 rpm; 15 min at 4° C.), the membrane protein fraction was prepared by suspending the membrane pellets in lysis buffer containing 0.3 M NaCl, 50 mM Tris-HCl (pH 7.6) and 0.5% Triton X-100 and the same concentration of protease inhibitors as above. The suspensions were incubated on ice and centrifuged (13000 rpm; 15 min at 4° C.). The protein concentrations of the combined supernatants were determined using the PIERCE® BCA protein assay (THERMO SCIENTIFIC®, Rockford, Ill.). […] As a loading control, total protein per sample was determined using Bio-Rad® Stain Free SDS-PAGE gel technology. UV-activated protein fluorescence was imaged on a CHEMIDOC® MP (BIO-RAD®). […] The volume (intensity) of each protein species was determined and normalized to total protein using Image Lab software (BIO-RAD®).
# [2] = test system: aged rats; assay: Voiding analysis in metabolic cages, aged rats; format: in vivo, rat
# Experimental: Experimental design: Young (3 months of age) and aged (25 to 30 months of age) Fisher 344 rats were used in these experiments. Some of the aged Fisher 344 rats were treated with 8-AG (5 mg kg/day via drinking water) for 1 month.
# Voiding analysis: Rats were placed in metabolic cages for 24 hr (once per week for the duration of the study). Voided urine was collected in cups attached to force displacement transducers (GRASS TECHNOLOGIES®, Warwick, R.I.) connected to a computer running WINDAQ™ data acquisition software (DATAQ™ Instruments Inc., Akron, Ohio). Data were averaged for 24 h, and voiding frequency, total voided volume, and volume per void were analyzed. Voiding frequency was calculated as the number of voiding events per hour during 24 h, and volume per void, which defines bladder capacity, was calculated as an average of the voids occurring during these periods.
# Animals: Male and female Fisher 344 rats were employed (Charles River; Wilmington, Mass. and the NIA rodent colony). Some rats were young (3 months of age), some were aged (25-30 months of age), and others were aged and treated with oral 8-AG (5 mg/kg/day; 6 weeks). Under isoflurane anesthesia and using an aseptic technique, an incision was made into the lower abdomen and in the scapular area. Sterile PE50 tubing was threaded subcutaneously from the lower abdomen to the scapular area and connected to a one-channel vascular access button (Intech Laboratories, Plymouth Meeting, Pa.). In the abdomen, the tubing was inserted into the bladder and secured with a small purse-string suture. The incisions were closed, and the animals were allowed to recover for 7-10 days before further experimentation. Animals were divided into three groups. A control group of aged rats received daily infusions with 10 μM DEA-NONOate (SIGMA-ALDRICH®, St. Louis, Mo.) in sterile 0.9% saline. A second group received 100 μM 8-AG plus 10 μM DEA-NONOate in 0.9% saline, and a third group received 5 μM forodesine (SIGMA-ALDRICH®) plus 10 μM DEA-NONOate in 0.9% saline. Bladders were instilled via a catheter tether kit (Instech Laboratories) connected to a syringe pump for continuous infusion (rate 200 μl/min; 30 minutes/daily) for 3-6 weeks. The Institutional Animal Care and Use Committee approved all procedures. The investigation conforms to the Guide for the Care and Use of Laboratory Animals published by the US National Institutes of Health (NIH Publication No. 85-23, revised 1996).
# Protocol 1: Young, aged, and 8-AG-treated aged rats were placed in metabolism cages for 24 hr once per week. The light cycle was from 7:00 AM to 7:00 PM, and food and water were provided ad libitum. Voided urine was collected in cups attached to force displacement transducers (GRASS TECHNOLOGIES®, Warwick, R.I.) that were connected to a computer running Windaq data acquisition software (DATAQ® Instruments I2nc., Akron, Ohio). Data were averaged for 24 h and analyzed for 12-h periods during the day (7:00 AM-7:00 PM) and night (7:00 PM-7:00 AM). Voiding frequency, total voided volume, and volume per void were analyzed. Voiding frequency was calculated as the number of voiding events per hour during 24 h and during the 12-h day and 12-h night periods. Volume per void, which defines bladder capacity, was calculated as an average of the voids occurring during these periods.
# Voiding Analysis: Young, aged, and 8-AG-treated aged rats were placed in metabolic cages (24 hr; once per week) for the duration of the study. The light cycle was from 7:00 AM to 7:00 PM, and food and water were provided ad libitum. Voided urine was collected in cups attached to force displacement transducers (Grass Technologies, Warwick, R.I.) connected to a computer (Windaq data acquisition software DATAQ Instruments Inc., Akron, Ohio). Data were averaged for 24 h and analyzed for 12-h periods during the day (7:00 AM-7:00 PM) and night (7:00 PM-7:00 AM). Voiding frequency, total voided volume, and volume per void were analyzed. […]
# [3] = aged Fischer 344 rats, oral 8-AG 5 mg/kg/day, 6 weeks
# [4] = aged Fisher 344 rats, 8-AG 5 mg kg/day via drinking water, 1 month
structure (smiles),measurement,setting,value
"Nc1nc2[nH]c(N)nc2c(=O)[nH]1 [8-AG, 8-Aminoguanine]",urethral nitrotyrosine,[1],normalized to a younger state
same,voided volume,[2]; [3],attenuates
same,voiding frequency,[2]; [3],attenuates
same,"bladder abnormalities (voided volume, voiding efficiency, voiding frequency)",[2]; [4],reversed
same,voided volume,[2]; [4],attenuates
same,voiding frequency,[2]; [4],attenuates
same,voiding frequency,"[2]; aged rats, intravesical 100 μM 8-AG plus 10 μM DEA-NONOate, daily infusion 3-6 weeks, vs control aged rats",decreased; also recorded: attenuates
